One data set concerns HCT-116. As to the kind of experiment: Antiproliferative activity against HCT116 cell line. The data set is classed as functional. As to conditions: Homo sapiens.
A short description of data set [1]: Half life in rat plasma. Format: ADME, cell-free.
Another data set concerns A549. As to the kind of experiment: Antiproliferative activity against human A549 cell line. Format: functional.
A further data set relates to PC-3. As to the kind of experiment: Antiproliferative activity against human PC3 cell line. The data set is classed as functional.
A further data set concerns SF-539. The data set can be described thus: Antiproliferative activity against human SF539 cell line. The data set is classed as functional.
The next data set deals with MCF7. As to the kind of experiment: Antiproliferative activity against human MCF7 cell line. Format: functional.
A further data set concerns SN12C. The data set can be described thus: Antiproliferative activity against human SN12C cell line. The data set is classed as functional.
The next data set deals with OVCAR-3. The data set can be described thus: Antiproliferative activity against human OVCAR-3 cell line. The data set is classed as functional.
The subject of data set [2] is Panel NCI-60 (60 carcinoma cell lines). As to the kind of experiment: Antiproliferative activity against NCI60 cell line. The data set is classed as functional. As to conditions: Homo sapiens.
For a further data set, the system named is UACC-62. As to the kind of experiment: Antiproliferative activity against human UACC62 cell line. The data set is classed as functional.

Regarding `C[C@H]1CCC/C=C/[C@@H]2C[C@H](OC(=O)CCCC(=O)O)C[C@H]2[C@H](O)/C=C/C(=O)O1`, the GI50 with HCT-116 stood at 21400 nM; in the data set with A549, 33200 nM; in the data set on PC-3, 19500 nM; in the data set with SF-539, 22400 nM; in the data set with MCF7, 19000 nM; in the data set on SN12C, 32400 nM. Besides, the concentration for 50% growth inhibition (GI50) in the data set with OVCAR-3 was 20400 nM; in data set [2], 13000 nM. This compound registered a half-life in [1] of more than 1440 min.

With `COC(=O)CCCC(=O)O[C@@H]1C[C@H]2[C@H](O)/C=C/C(=O)O[C@@H](C)CCC/C=C/[C@@H]2C1`, the GI50 came to 40 nM with HCT-116; 50 nM in the data set on A549; 60 nM in the data set on PC-3; 70 nM with SF-539; 40 nM in the data set with MCF7; 200 nM in the data set on SN12C. The 50% growth inhibitory concentration (GI50) in the data set with OVCAR-3 was found to be 30 nM; with UACC-62 it was 130 nM; in data set [2] it was 110 nM. The compound also returned a half-life in data set [1] of 3 min.

Turning to `C[C@H]1CCC/C=C/[C@@H]2C[C@H](OC(=O)CCCC(=O)NCCCCCCO)C[C@H]2[C@H](O)/C=C/C(=O)O1`, the 50% growth inhibitory concentration (GI50) in the data set with HCT-116 is 650 nM; in the data set on A549, 700 nM; in the data set with PC-3, 330 nM; in the data set with MCF7 it was 180 nM; in [2] it was 470 nM.

As for `C[C@H]1CCC/C=C/[C@@H]2C[C@H](O)C[C@H]2[C@H](OC(=O)CCCC(=O)O)/C=C/C(=O)O1`, the GI50 turned out to be 25700 nM with HCT-116; 33100 nM in the data set on A549; 43600 nM with PC-3; 31600 nM with SF-539; 39800 nM with MCF7; 30200 nM with SN12C. The concentration for 50% growth inhibition (GI50) in the data set on OVCAR-3 was found to be 36300 nM; in the data set with UACC-62 it was 31600 nM; in [2], 29500 nM.

For the compound `CC(=O)O[C@@H]1C[C@H]2[C@H](O)/C=C/C(=O)O[C@@H](C)CCC/C=C/[C@@H]2C1`, the GI50 in the data set with HCT-116 is 1150 nM; in the data set with A549, 10 nM; in the data set with PC-3, 40 nM; with SF-539 it was 5250 nM; in the data set on MCF7, 20 nM; with SN12C it was 10 nM. Also, the GI50 with OVCAR-3 stood at 10 nM; in the data set on UACC-62 it was 10 nM; in [2], 40 nM. The compound further came in with a half-life in data set [1] of 30 min.

For `COC(=O)CCCC(=O)O[C@@H]1C[C@@H]2[C@H](/C=C/CCC[C@H](C)OC(=O)/C=C/[C@H]2OC(=O)CCCC(=O)OC)C1`, the GI50 worked out at 3470 nM in the data set on HCT-116; 12900 nM in the data set with A549; 5010 nM in the data set with PC-3; 5010 nM with SF-539; 2570 nM in the data set on MCF7; 3020 nM with SN12C. Further, the 50% growth inhibitory concentration (GI50) with OVCAR-3 is 600 nM; in the data set on UACC-62, 4470 nM; in [2], 5100 nM.

In the case of `COC(=O)CCCC(=O)O[C@@H]1/C=C/C(=O)O[C@@H](C)CCC/C=C/[C@@H]2C[C@H](O)C[C@H]21`, the GI50 was 3470 nM with HCT-116; 4170 nM in the data set on A549; 40 nM with PC-3; 3390 nM in the data set with SF-539; 310 nM with MCF7; 10 nM in the data set on SN12C. Further, the concentration for 50% growth inhibition (GI50) stood at 2400 nM in the data set with OVCAR-3, 10 nM with UACC-62 and 160 nM in data set [2].

As for `CC(=O)O[C@@H]1C[C@@H]2[C@H](/C=C/CCC[C@H](C)OC(=O)/C=C/[C@H]2OC(C)=O)C1`, the GI50 is 22900 nM with HCT-116; 850 nM with A549; 2140 nM with PC-3; 58900 nM with SF-539; 2630 nM in the data set with MCF7; 10 nM in the data set on SN12C. The concentration for 50% growth inhibition (GI50) in the data set on OVCAR-3 worked out at 1480 nM; with UACC-62, 10 nM; in data set [2] it was 450 nM.

Take `C[C@H]1CCC/C=C/[C@@H]2C[C@H](OC(=O)CCCC(=O)O)C[C@H]2[C@H](OC(=O)CCCC(=O)O)/C=C/C(=O)O1`: the GI50 in the data set with HCT-116, in the data set with A549, with PC-3, in the data set on SF-539, with MCF7 and in the data set on SN12C was more than 100000 nM in each case. Besides, the GI50 was more than 100000 nM in the data set with OVCAR-3, more than 100000 nM in the data set with UACC-62 and 97700 nM in [2].

Take `C[C@H]1CCC/C=C/[C@@H]2C[C@H](O)C[C@H]2[C@H](O)/C=C/C(=O)O1` [BREFELDIN A]: the GI50 in the data set with HCT-116 was found to be 30 nM; with A549, 40 nM; with PC-3 it was 50 nM; in the data set on MCF7 it was 20 nM; in the data set on OVCAR-3, 30 nM; with UACC-62 it was 20 nM. Further, halving of growth in [2] (GI50) required 40 nM. In addition, in [1], the half-life was more than 1440 min.

The GI50 is the concentration giving 50% growth inhibition. A lower GI50 goes with greater sensitivity of the cells. In general, half-life refers to the time needed for the level to fall by half in the phase considered. A low value points to rapid decline.
